# From patent publication US10662205B2, “Cyclic boronic acid ester derivatives and therapeutic uses thereof” (priority 2014, dated 2020)
# Where two headings read alike, the source gives them in different places.
# What was measured:
# EC1010 (CMY-6) [1] = assay: Aztreonam potentiation (MPC@4); format: cell-based; details: aztreonam 4 μg/mL
# KP1005 (CTX-M-14) [2] = assay: Aztreonam potentiation (MPC@4); format: cell-based; details: aztreonam 4 μg/mL
# ec308 (SHV-5) [3] = assay: Aztreonam potentiation (MPC@4); format: cell-based; details: aztreonam 4 μg/mL
# KP1005 (CTX-M-14) [4] = assay: Tigemonam potentiation (MPC@4); format: cell-based; details: tigemonam 4 μg/mL
# ec302 (TEM-10) [5] = assay: Aztreonam potentiation (MPC@4); format: cell-based; details: aztreonam 4 μg/mL
# ec302 (TEM-10) [6] = assay: Tigemonam potentiation (MPC@4); format: cell-based; details: tigemonam 4 μg/mL
# KP1004 (KPC-2) [7] = assay: Aztreonam potentiation (MPC@4); format: cell-based; details: aztreonam 4 μg/mL
# PAM1032/KPC-2 = assay: Biapenem potentiation MPC64, efflux proficient strain; format: cell-based, Pseudomonas aeruginosa; design: unit not given here; details: efflux proficient (MexAB-OprM overexpressed); decrease biapenem MIC 64-fold, 32 to 0.5 μg/ml
# Procedure: (§1) Efflux of BLIs from Pseudomonas aeruginosa by the MexAB-OprM efflux pump was also evaluated. The plasmid expressing the gene encoding KPC-2 was introduced into two strains of P. aeruginosa, PAM1032 and PAM1154 that overexpressed or lacked MexAB-OprM, respectively. Due to expression of KPC-2 both strains became resistant to biapenem. […] Potency of BLIs to potentiate biapenem in these strains was determined. […] The ratio of MPC64 values for each BLI in PAM1032/KPC-2 (efflux proficient) and PAM1154/KPC-2 (efflux deficient) was determined to generate the Efflux Index (EI).
# KP1086 (OXA-48) = assay: Biapenem potentiation (MPC@1); details: biapenem 1 μg/mL
# ec308 (SHV-5) [8] = assay: Tigemonam potentiation (MPC@4); format: cell-based; details: tigemonam 4 μg/mL
# ECL1002 [9] = assay: Aztreonam potentiation (MPC@4); format: cell-based; details: aztreonam 4 μg/mL
# P99 = P99 (Enterobacter cloacae, UniProt P05364); assay: biochemical; details: nitrocefin reporter substrate; 10 min preincubation; read-out: Ki P99, NCF
# Procedure: (§2) Ki values of inhibition of purified class A, C and D enzymes were determined spectrophotometrically using nitrocefin as reporter substrate. Purified enzymes were mixed with various concentrations of inhibitors in reaction buffer and incubated for 10 min at room temperature. Nitrocefin was added and substrate cleavage profiles were recorded at 490 nm every 10 sec for 10 min.
# KP1009 (CTX-M-15) [10] = assay: Tigemonam potentiation (MPC@4); format: cell-based
# KP1004 (KPC-2) [11] = assay: Biapenem potentiation (MPC@1); details: biapenem 1 μg/mL
# Oral pharmacokinetics = format: in vivo; details: rat, plasma, rats, n=3, read-out: Range of % Oral Bioavailability
# Procedure: Several compounds were tested for their oral pharmacokinetics. Rats (n=3 per compound) were administered a single oral dose. Oral doses were administered as a bolus. Plasma (˜0.3 mL) samples were collected from each rat at designated time points up to 24 hours. Blood samples were centrifuged within 5 min of collection at 12000 g for 5 min to obtain plasma. The plasma samples were stored at −80° C. until analyzed. Data were analyzed using WinNonlin.
# ECL1002 [12] = assay: Tigemonam potentiation (MPC@4); format: cell-based; details: tigemonam 4 μg/mL
# KP1009 (CTX-M-15) [13] = assay: Aztreonam potentiation (MPC@4); format: cell-based; details: aztreonam 4 μg/mL
# EC1010 (CMY-6) [14] = assay: Tigemonam potentiation (MPC@4); format: cell-based; details: tigemonam 4 μg/mL; EC1010, CMY-6
# KPC-2 = KPC-2 (Klebsiella pneumoniae, UniProt Q9F663); assay: Inhibition of nitrocefin cleavage by purified enzyme (Ki); format: biochemical; details: nitrocefin reporter substrate; 10 min preincubation; read-out: Ki KPC-2, NCF
# Procedure: as §2, with “min. These experiments confirmed that the described compounds are inhibitors with a broad-spectrum of activity towards various β-lactamases.” for “min.”
# CMY-2 = CMY-2 (Klebsiella pneumoniae, UniProt Q48434); assay: as above; format: biochemical; details: nitrocefin reporter substrate; 10 min preincubation; read-out: Ki CMY-2, NCF
# Procedure: as §2, with “min. These experiments confirmed that the described compounds are inhibitors with a broad-spectrum of activity towards various β-lactamases.” for “min.”
# OXA-48 = OXA-48 (Klebsiella pneumoniae, UniProt Q6XEC0); assay: as above; format: biochemical; details: nitrocefin reporter substrate; 10 min preincubation; read-out: Ki OXA-48, NCF
# Procedure: as §2, with “min. These experiments confirmed that the described compounds are inhibitors with a broad-spectrum of activity towards various β-lactamases.” for “min.”
# PAM1154/KPC-2 = assay: Biapenem potentiation MPC64, efflux deficient strain; format: cell-based, Pseudomonas aeruginosa; design: unit not given here; details: efflux deficient (lacks MexAB-OprM); decrease biapenem MIC 64-fold, 32 to 0.5 μg/ml
# Procedure: as §1
# CTX-M-14 = CTX-M-14 (Escherichia coli, UniProt Q9L5C7); assay: Inhibition of nitrocefin cleavage by purified enzyme (Ki); format: biochemical; details: nitrocefin reporter substrate; 10 min preincubation; read-out: Ki CTX-M-14, NCF
# Procedure: as §2
# SHV-12 = SHV-12 (Klebsiella pneumoniae, UniProt P0AD64, E235K/G234S/L31Q); assay: as above; format: biochemical
# Procedure: as §2
# KP1010 (SHV-12) [15] = assay: Tigemonam potentiation (MPC@4); format: cell-based
# KP1010 (SHV-12) [16] = assay: Aztreonam potentiation (MPC@4); format: cell-based; details: aztreonam 4 μg/mL
# Sequence of KPC-2 (Q9F663 25-293, looked up, species assumed): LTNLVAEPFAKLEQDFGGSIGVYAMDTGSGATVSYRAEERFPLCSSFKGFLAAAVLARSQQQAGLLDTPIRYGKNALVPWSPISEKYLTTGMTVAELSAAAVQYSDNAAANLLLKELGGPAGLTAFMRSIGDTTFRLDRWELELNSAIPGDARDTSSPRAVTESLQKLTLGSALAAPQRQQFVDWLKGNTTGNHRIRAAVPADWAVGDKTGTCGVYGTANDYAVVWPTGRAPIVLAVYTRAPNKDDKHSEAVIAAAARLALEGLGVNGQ
# Sequence of OXA-48 (Q6XEC0 23-265, looked up, species assumed): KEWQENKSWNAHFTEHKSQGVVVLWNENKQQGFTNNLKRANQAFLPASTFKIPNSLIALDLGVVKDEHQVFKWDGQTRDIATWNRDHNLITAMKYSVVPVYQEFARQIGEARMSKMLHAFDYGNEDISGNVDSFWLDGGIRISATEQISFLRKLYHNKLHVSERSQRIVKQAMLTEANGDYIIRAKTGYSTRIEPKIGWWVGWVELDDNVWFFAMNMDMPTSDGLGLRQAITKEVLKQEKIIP
# Sequence of CTX-M-14 (Q9L5C7 29-291): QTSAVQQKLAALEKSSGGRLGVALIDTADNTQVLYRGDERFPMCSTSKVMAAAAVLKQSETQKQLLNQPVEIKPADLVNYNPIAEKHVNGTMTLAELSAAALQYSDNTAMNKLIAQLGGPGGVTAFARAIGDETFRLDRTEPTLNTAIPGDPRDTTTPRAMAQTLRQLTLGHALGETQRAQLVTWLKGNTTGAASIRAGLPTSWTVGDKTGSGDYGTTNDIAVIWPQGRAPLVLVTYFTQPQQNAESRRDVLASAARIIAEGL
# Sequence of P99 (P05364 21-381): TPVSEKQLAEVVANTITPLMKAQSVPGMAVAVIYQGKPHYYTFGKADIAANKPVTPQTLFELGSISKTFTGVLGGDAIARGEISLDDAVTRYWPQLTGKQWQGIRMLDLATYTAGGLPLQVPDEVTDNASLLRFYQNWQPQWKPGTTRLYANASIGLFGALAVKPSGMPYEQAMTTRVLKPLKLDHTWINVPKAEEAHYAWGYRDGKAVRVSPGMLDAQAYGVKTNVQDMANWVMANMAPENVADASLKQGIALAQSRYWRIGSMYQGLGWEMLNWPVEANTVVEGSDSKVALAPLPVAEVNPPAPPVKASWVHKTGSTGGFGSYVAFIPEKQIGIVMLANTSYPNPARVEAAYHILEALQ
# Sequence of CMY-2 (Q48434 21-381, species assumed): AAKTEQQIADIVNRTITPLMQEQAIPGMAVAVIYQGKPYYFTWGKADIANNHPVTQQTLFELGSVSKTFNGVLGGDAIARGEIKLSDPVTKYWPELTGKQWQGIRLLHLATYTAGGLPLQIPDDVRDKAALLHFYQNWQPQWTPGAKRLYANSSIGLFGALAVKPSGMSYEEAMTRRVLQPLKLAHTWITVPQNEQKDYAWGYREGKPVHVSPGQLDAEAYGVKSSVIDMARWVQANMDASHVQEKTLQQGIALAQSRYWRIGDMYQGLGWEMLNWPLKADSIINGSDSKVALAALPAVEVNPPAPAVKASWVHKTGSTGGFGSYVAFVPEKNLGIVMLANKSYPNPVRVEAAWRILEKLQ
# Sequence of SHV-12 (P0AD64 22-286 L31Q/G234S/E235K): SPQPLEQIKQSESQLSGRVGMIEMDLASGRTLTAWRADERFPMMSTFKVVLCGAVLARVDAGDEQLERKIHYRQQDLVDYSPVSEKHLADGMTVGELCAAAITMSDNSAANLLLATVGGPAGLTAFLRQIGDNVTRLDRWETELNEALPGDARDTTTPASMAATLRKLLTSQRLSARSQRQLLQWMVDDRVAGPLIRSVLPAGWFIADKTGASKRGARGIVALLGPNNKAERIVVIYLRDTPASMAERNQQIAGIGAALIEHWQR
SMILES,MPC@4 aztreonam potentiation (EC1010 (CMY-6) [1]),MPC@4 aztreonam potentiation (KP1005 (CTX-M-14) [2]),MPC@4 aztreonam potentiation (ec308 (SHV-5) [3]),MPC@4 tigemonam potentiation (KP1005 (CTX-M-14) [4]),MPC@4 tigemonam potentiation (ec302 (TEM-10) [6]),MPC@4 aztreonam potentiation (KP1004 (KPC-2) [7]),PAM1032/KPC-2 Biapenem MPC64 (PAM1032/KPC-2),MPC@1 biapenem potentiation (KP1086 (OXA-48)),MPC@4 tigemonam potentiation (ec308 (SHV-5) [8]),MPC@4 aztreonam potentiation (ECL1002 [9]),Ki (P99) [nM],MPC@4 tigemonam potentiation (KP1009 (CTX-M-15) [10]),MPC@1 biapenem potentiation (KP1004 (KPC-2) [11]),MPC@4 tigemonam potentiation (ECL1002 [12]),MPC@4 aztreonam potentiation (KP1009 (CTX-M-15) [13]),MPC@4 tigemonam potentiation (EC1010 (CMY-6) [14]),Ki (KPC-2) [nM],Ki (OXA-48) [nM],PAM1154/KPC-2 Biapenem MPC64 (PAM1154/KPC-2),Ki (CTX-M-14) [nM],also measured
"CSCC(=O)N[C@H]1CC=C[C@@H]2CC(=O)OB1O2 [Compound 1, 2-(METHYLTHIO)-N-((2R,6S)-8-OXO-9,10-DIOXA-1-BORABICYCLO[4.3.1]DEC-4-EN-2-YL)ACETAMIDE]",X (X = MPC@4 ≤ 5 μg/mL),X (X = MPC@4 ≤ 5 μg/mL),X (X = MPC@4 ≤ 5 μg/mL),X (X = MPC@4 ≤ 5 μg/mL),Y (Y = 5 μg/mL < MPC@4 ≤ 20 μg/mL),X (X = MPC@4 ≤ 5 μg/mL),80,Z (Z = MPC@1 > 20 μg/mL),X (X = MPC@4 ≤ 5 μg/mL),X (X = MPC@4 ≤ 5 μg/mL),< 100,X (key: X = MPC@4 ≤ 5 μg/mL; Y = 5 μg/mL < MPC@4 ≤ 20 μg/mL; Z = MPC@4 > 20 μg/mL),X (X = MPC@1 ≤ 5 μg/mL),X (X = MPC@4 ≤ 5 μg/mL),X (X = MPC@4 ≤ 5 μg/mL),X (X = MPC@4 ≤ 5 μg/mL),100 to 1000,< 100,5,< 100,MPC@4 aztreonam potentiation (ec302 (TEM-10) [5]): X (X = MPC@4 ≤ 5 μg/mL); bioavailability (Oral pharmacokinetics; single oral dose 30 mg/kg): 44 to 61%; bioavailability (Oral pharmacokinetics; single oral dose 100 mg/kg): 63 to 74%; bioavailability (Oral pharmacokinetics; single oral dose 300 mg/kg): 61 to 77%; Ki (CMY-2): < 100 nM; Ki (SHV-12): < 100 nM; MPC@4 tigemonam potentiation (KP1010 (SHV-12) [15]): X (key: X = MPC@4 ≤ 5 μg/mL; Y = 5 μg/mL < MPC@4 ≤ 20 μg/mL; Z = MPC@4 > 20 μg/mL); MPC@4 aztreonam potentiation (KP1010 (SHV-12) [16]): X (X = MPC@4 ≤ 5 μg/mL)
"O=C(CSC(F)F)N[C@H]1CC=C[C@@H]2CC(=O)OB1O2 [Compound 3, 2-(DIFLUOROMETHYLTHIO)-N-((2R,6S)-8-OXO-9,10-DIOXA-1-BORABICYCLO[4.3.1]DEC-4-EN-2-YL)ACETAMIDE]",X (X = MPC@4 ≤ 5 μg/mL),X (X = MPC@4 ≤ 5 μg/mL),X (X = MPC@4 ≤ 5 μg/mL),X (X = MPC@4 ≤ 5 μg/mL),Y (Y = 5 μg/mL < MPC@4 ≤ 20 μg/mL),X (X = MPC@4 ≤ 5 μg/mL),>80,Z (Z = MPC@1 > 20 μg/mL),X (X = MPC@4 ≤ 5 μg/mL),X (X = MPC@4 ≤ 5 μg/mL),< 100,X (key: X = MPC@4 ≤ 5 μg/mL; Y = 5 μg/mL < MPC@4 ≤ 20 μg/mL; Z = MPC@4 > 20 μg/mL),X (X = MPC@1 ≤ 5 μg/mL),X (X = MPC@4 ≤ 5 μg/mL),X (X = MPC@4 ≤ 5 μg/mL),X (X = MPC@4 ≤ 5 μg/mL),100 to 1000,< 100,5,< 100,MPC@4 aztreonam potentiation (ec302 (TEM-10) [5]): X (X = MPC@4 ≤ 5 μg/mL); bioavailability (Oral pharmacokinetics; single oral dose 30 mg/kg): 28 to 54%; Ki (SHV-12): < 100 nM; MPC@4 tigemonam potentiation (KP1010 (SHV-12) [15]): X (key: X = MPC@4 ≤ 5 μg/mL; Y = 5 μg/mL < MPC@4 ≤ 20 μg/mL; Z = MPC@4 > 20 μg/mL); MPC@4 aztreonam potentiation (KP1010 (SHV-12) [16]): X (X = MPC@4 ≤ 5 μg/mL)
"Cn1nnnc1SCC(=O)N[C@H]1CC=C[C@@H]2CC(=O)OB1O2 [Compound 4, 2-(1-METHYL-1H-TETRAZOL-5-YLTHIO)-N-((2R,6S)-8-OXO-9,10-DIOXA-1-BORABICYCLO[4.3.1]DEC-4-EN-2-YL)ACETAMIDE]",X (X = MPC@4 ≤ 5 μg/mL),X (X = MPC@4 ≤ 5 μg/mL),X (X = MPC@4 ≤ 5 μg/mL),Y (Y = 5 μg/mL < MPC@4 ≤ 20 μg/mL),Y (Y = 5 μg/mL < MPC@4 ≤ 20 μg/mL),X (X = MPC@4 ≤ 5 μg/mL),>80,Z (Z = MPC@1 > 20 μg/mL),X (X = MPC@4 ≤ 5 μg/mL),X (X = MPC@4 ≤ 5 μg/mL),< 100,X (key: X = MPC@4 ≤ 5 μg/mL; Y = 5 μg/mL < MPC@4 ≤ 20 μg/mL; Z = MPC@4 > 20 μg/mL),X (X = MPC@1 ≤ 5 μg/mL),X (X = MPC@4 ≤ 5 μg/mL),X (X = MPC@4 ≤ 5 μg/mL),X (X = MPC@4 ≤ 5 μg/mL),100 to 1000,< 100,10,< 100,MPC@4 aztreonam potentiation (ec302 (TEM-10) [5]): X (X = MPC@4 ≤ 5 μg/mL); bioavailability (Oral pharmacokinetics; single oral dose 50 mg/kg): 3.2 to 4.6%; Ki (CMY-2): < 100 nM; Ki (SHV-12): < 100 nM; MPC@4 tigemonam potentiation (KP1010 (SHV-12) [15]): X (key: X = MPC@4 ≤ 5 μg/mL; Y = 5 μg/mL < MPC@4 ≤ 20 μg/mL; Z = MPC@4 > 20 μg/mL); MPC@4 aztreonam potentiation (KP1010 (SHV-12) [16]): X (X = MPC@4 ≤ 5 μg/mL)
"Cn1cnnc1SCC(=O)N[C@H]1CC=C[C@@H]2CC(=O)OB1O2 [Compound 5, 2-(4-METHYL-4H-1,2,4-TRIAZOL-3-YLTHIO)-N-((2R,6S)-8-OXO-9,10-DIOXA-1-BORABICYCLO[4.3.1]DEC-4-EN-2-YL)ACETAMIDE]",X (X = MPC@4 ≤ 5 μg/mL),X (X = MPC@4 ≤ 5 μg/mL),X (X = MPC@4 ≤ 5 μg/mL),X (X = MPC@4 ≤ 5 μg/mL),Z (Z = MPC@4 > 20 μg/mL),Y (Y = 5 μg/mL < MPC@4 ≤ 20 μg/mL),80,Z (Z = MPC@1 > 20 μg/mL),X (X = MPC@4 ≤ 5 μg/mL),X (X = MPC@4 ≤ 5 μg/mL),< 100,X (key: X = MPC@4 ≤ 5 μg/mL; Y = 5 μg/mL < MPC@4 ≤ 20 μg/mL; Z = MPC@4 > 20 μg/mL),X (X = MPC@1 ≤ 5 μg/mL),X (X = MPC@4 ≤ 5 μg/mL),X (X = MPC@4 ≤ 5 μg/mL),X (X = MPC@4 ≤ 5 μg/mL),100 to 1000,100 to 1000,20,< 100,bioavailability (Oral pharmacokinetics; single oral dose 50 mg/kg): 2.5 to 3%; Ki (CMY-2): < 100 nM; Ki (SHV-12): < 100 nM; MPC@4 tigemonam potentiation (KP1010 (SHV-12) [15]): X (key: X = MPC@4 ≤ 5 μg/mL; Y = 5 μg/mL < MPC@4 ≤ 20 μg/mL; Z = MPC@4 > 20 μg/mL); MPC@4 aztreonam potentiation (KP1010 (SHV-12) [16]): X (X = MPC@4 ≤ 5 μg/mL)
